The target of one test is T1, KAT5 (Homo sapiens, UniProt Q92993).
T1 construct: His-TEV tag (N, cleaved yes); made in house
Put plainly: KAT5 enzyme inhibition assay (SAMDI mass spectrometry). The format is biochemical. The conditions noted are these: His-TEV-FL KAT5-Flag enzyme construct.

For another test, the target named is T2, KAT6A (Homo sapiens, UniProt Q92794).
T2 construct: His-TEV tag (N, cleaved yes); made in house
Put plainly: KAT6A enzyme inhibition assay (SAMDI mass spectrometry). Type of test: biochemical. Particulars: His-TEV-KAT6A 501-784 enzyme construct.

Where only a bound is given, the exact number is not on record here.

What is called IC50 is the point on the concentration scale where inhibition reaches its midpoint. A lower IC50 goes with inhibition by little substance.

T1 sequence (Q92993 with tags, fused parts or gaps): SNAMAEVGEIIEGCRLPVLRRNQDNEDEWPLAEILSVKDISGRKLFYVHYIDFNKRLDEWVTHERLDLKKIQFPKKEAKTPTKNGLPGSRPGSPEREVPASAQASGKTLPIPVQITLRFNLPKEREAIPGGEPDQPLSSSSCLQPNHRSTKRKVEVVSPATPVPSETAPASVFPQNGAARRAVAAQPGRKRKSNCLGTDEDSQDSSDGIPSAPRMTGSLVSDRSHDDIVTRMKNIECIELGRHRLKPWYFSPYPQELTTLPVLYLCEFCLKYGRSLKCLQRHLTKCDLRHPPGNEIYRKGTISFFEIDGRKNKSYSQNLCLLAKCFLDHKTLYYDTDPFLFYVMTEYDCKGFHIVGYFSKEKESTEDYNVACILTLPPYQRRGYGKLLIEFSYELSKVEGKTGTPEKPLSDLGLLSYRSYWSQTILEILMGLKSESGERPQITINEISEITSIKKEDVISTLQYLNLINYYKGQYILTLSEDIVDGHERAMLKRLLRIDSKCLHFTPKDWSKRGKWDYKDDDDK
T2 sequence (Q92794 with tags, fused parts or gaps): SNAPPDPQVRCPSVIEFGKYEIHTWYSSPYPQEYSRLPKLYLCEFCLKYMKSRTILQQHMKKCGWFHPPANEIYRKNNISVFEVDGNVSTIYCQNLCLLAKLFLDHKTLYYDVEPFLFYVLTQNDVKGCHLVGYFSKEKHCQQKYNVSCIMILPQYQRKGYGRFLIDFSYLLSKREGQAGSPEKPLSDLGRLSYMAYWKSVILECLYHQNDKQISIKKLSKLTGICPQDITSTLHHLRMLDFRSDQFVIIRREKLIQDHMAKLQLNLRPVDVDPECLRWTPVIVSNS

On to `COCCN1CC(CS(=O)(=O)NNC(=O)c2cc(-c3ccccc3)cc(C)c2F)C1` [Compound I-208], for which the half-maximal inhibitory concentration (IC50) against KAT5 and against KAT6A was 10 to 50 µM throughout.
For the molecule `CNC(=O)Cn1nc(C(=O)NNS(=O)(=O)C2CCCCC2)c(F)c1C` [Compound I-489], the half-inhibitory concentration (IC50) against KAT5 and at KAT6A was > 100 µM in each case.
As for `Cc1cc(-c2cccc(F)c2)cc(C(=O)NNS(=O)(=O)CC2CCCNC2)c1F` (stereo not shown) [Compound I-278], the half-inhibitory concentration (IC50) on KAT5 was 50 to 100 µM; against KAT6A it was > 100 µM.
As to `O=C(NNS(=O)(=O)c1ccccc1)c1cc(-c2ccccc2)cc2[nH]cnc12` [Compound I-53], the IC50 against KAT5 and against KAT6A was 10 to 50 µM throughout.
Take `Cc1cc(-c2ccccc2)cc(C(=O)NNS(=O)(=O)C2CCN(C(=O)OC(C)(C)C)C2)c1F` (stereo not shown) [Compound I-118, tert-Butyl 3-((2-(4-fluoro-5-methyl-[1,1′-biphenyl]-3-carbonyl)hydrazinyl)sulfonyl)pyrrolidine-1-carboxylate]: the IC50 is 10 to 50 µM against KAT5 and ≤ 10 µM against KAT6A.
In the same order, the values of `CCc1cc(Cl)c(F)c(C(=O)NNS(=O)(=O)C2CCCCC2)c1` [Compound I-420] are 10 to 50 µM and > 100 µM.
`O=C(NNS(=O)(=O)c1ccccc1)c1cc(-c2ccccc2)cc2[nH]ccc12` [Compound I-16]: the IC50 against KAT5 was > 100 µM; on KAT6A, 50 to 100 µM.
In the same order, the values of `O=S(=O)(NNCc1ccccc1F)c1ccccc1` [Compound I-245] are > 100 µM and > 100 µM.
For `COc1ccccc1S(=O)(=O)NNC(=O)c1c(F)ccc(-c2ccccc2)c1C` [Compound I-237] the same measures were > 100 µM and 50 to 100 µM.
For the molecule `O=C(NNS(=O)(=O)CC1CCCNC1)c1cc(-c2cccc(F)c2)cc(Cl)c1F` (stereo not shown) [Compound I-416], the IC50 against KAT5 and against KAT6A was 50 to 100 µM each time.
Consider `Cc1cc(-c2ccccc2)cc(C(=O)NNS(=O)(=O)CC2CCCN(C(=O)CCN(C)C(=O)OC(C)(C)C)C2)c1F` (stereo not shown) [Compound I-379], for which the IC50 against KAT5 and against KAT6A was ≤ 10 µM in each case.
In the case of `Cc1cccc(S(=O)(=O)NNC(=O)c2c(F)ccc(-c3ccccc3)c2F)c1` [Compound I-155], the half-maximal inhibitory concentration (IC50) was 10 to 50 µM on KAT5 and ≤ 10 µM against KAT6A.
For the molecule `COCCN1CCC(CS(=O)(=O)NNC(=O)c2cc(-c3ccccc3)cc(C)c2F)C1` (stereo not shown) [Compound I-336], the IC50 against KAT5 and at KAT6A was 10 to 50 µM each time.
Take `CNC(=O)c1cccc(S(=O)(=O)NNC(=O)c2cc(-c3ccccc3)cc(C)c2F)c1` [Compound I-219]: the IC50 against KAT5 and against KAT6A was ≤ 10 µM in each case.
Turning to `COc1ccc(C(=O)NNS(=O)(=O)c2ccccc2)cc1` [Compound I-192], the 50% inhibitory concentration (IC50) at KAT5 and on KAT6A was > 100 µM each time.
`CNC(=O)c1cccc(-c2cc(C)c(F)c(C(=O)NNS(=O)(=O)CC3CCCCC3)c2)c1` [Compound I-433]: the IC50 against KAT5 was ≤ 10 µM; at KAT6A it was 10 to 50 µM.
For `O=C(NC1CCC1)c1cc(Cl)c(F)c(C(=O)NNS(=O)(=O)C2CCOCC2)c1` [Compound I-488], the half-inhibitory concentration (IC50) on KAT5 and against KAT6A was > 100 µM each time.
As for `CCc1cc(Cl)c(F)c(C(=O)NNS(=O)(=O)CC2CCOCC2)c1` [Compound I-423], the concentration for half-maximal inhibition (IC50) against KAT5 is 10 to 50 µM; at KAT6A it was > 100 µM.
In the case of `O=S(=O)(NNc1n[nH]c2ccccc12)c1ccccc1` [Compound I-44], the IC50 against KAT5 and on KAT6A was > 100 µM throughout.
In the case of `Cc1ccccc1C(=O)NNS(=O)(=O)c1ccccc1` [Compound I-148], the IC50 on KAT5 and on KAT6A was > 100 µM in each case.
As for `Cc1ccc(-c2ccccc2)c(C)c1C(=O)NNS(=O)(=O)c1ccccc1` [Compound I-200], the IC50 against KAT5 and on KAT6A was > 100 µM each time.
Consider `CNCCC(=O)N1CCCC(CS(=O)(=O)NNC(=O)c2cc(-c3cccc(F)c3)cc(C)c2F)C1` (stereo not shown) [Compound I-328], for which the half-maximal inhibitory concentration (IC50) against KAT5 and on KAT6A was 10 to 50 µM throughout.
`O=C(NNS(=O)(=O)CC1CCCN(C(=O)C2CCOCC2)C1)c1cc(-c2ccccc2)cc(Cl)c1F` (stereo not shown) [Compound I-419]: the half-maximal inhibitory concentration (IC50) against KAT5 and at KAT6A was ≤ 10 µM each time.
Consider `O=C(NNS(=O)(=O)C1CCCCC1)c1cc(Cl)cc(Cl)c1F` [Compound I-413], for which the IC50 at KAT5 was 10 to 50 µM; at KAT6A it was > 100 µM.
On to `Cc1cc(-c2ccccc2)nc(C(=O)NNS(=O)(=O)C2CCCCC2)c1F` [Compound I-483], for which the figures for the half-inhibitory concentration (IC50) against KAT5 and against KAT6A were 50 to 100 µM and > 100 µM, respectively.
For `O=C(NNS(=O)(=O)C1CCCCC1)c1nc(-c2ccccc2)cc(Cl)c1F` [Compound I-479] the same measures were > 100 µM and 50 to 100 µM.
Regarding `Cc1nn(CC(=O)NC2CCC2)c(C(=O)NNS(=O)(=O)C2CCCCC2)c1F` [Compound I-501], the IC50 against KAT5 and against KAT6A was > 100 µM in each case.
`CC(=O)N1CC(S(=O)(=O)NNC(=O)c2cc(-c3ccccc3)cc(C)c2F)C1` [Compound I-40]: the concentration for half-maximal inhibition (IC50) was in the range of 50 to 100 µM at KAT5 and 10 to 50 µM on KAT6A.
Regarding `Cc1c(-c2ccccc2)ccc(F)c1C(=O)NNS(=O)(=O)CC1CCCCC1` [Compound I-258], the concentration for half-maximal inhibition (IC50) against KAT5 and against KAT6A was 50 to 100 µM in each case.
For the molecule `Cc1cc(-c2ccccc2)cc(C(=O)NNS(=O)(=O)CC2CN(C(=O)OC(C)(C)C)CCO2)c1F` (stereo not shown) [Compound I-424], the IC50 at KAT5 and against KAT6A was ≤ 10 µM in each case.
As for `Cc1cc(-c2ccccc2)cc(C(=O)NNS(=O)(=O)C2CN(Cc3ccc(Cl)cc3)C2)c1F` [Compound I-63], the half-maximal inhibitory concentration (IC50) against KAT5 and on KAT6A was > 100 µM throughout.
As for `O=C(NNS(=O)(=O)c1cc(-c2ccccc2)cc(Cl)c1F)c1ccccc1` [Compound I-523], the concentration for half-maximal inhibition (IC50) against KAT5 and at KAT6A was 10 to 50 µM each time.
Turning to `Cc1cc(-c2ccccc2)cc(C(=O)NNS(=O)(=O)c2cccnc2)c1F` [Compound I-175], the IC50 against KAT5 and against KAT6A was ≤ 10 µM throughout.
With `CCNC(=O)N1CCC(CS(=O)(=O)NNC(=O)c2cc(-c3cccc(C)c3)cc(Cl)c2F)C1` (stereo not shown) [Compound I-518], the IC50 on KAT5 and against KAT6A was > 100 µM each time.
Turning to `Cc1cc(-c2ccccc2)cc(C(=O)NCc2cc[nH]n2)c1F` [Compound I-173], the half-inhibitory concentration (IC50) on KAT5 and at KAT6A was > 100 µM throughout.
`CC(=O)N1CCCC(CS(=O)(=O)NNC(=O)c2cc(-c3ccccc3)cc(C)c2F)C1` (stereo not shown) [Compound I-322]: the IC50 against KAT5 and at KAT6A was ≤ 10 µM throughout.
For `Cc1nc(-c2cccc(F)c2)cc(C(=O)NNS(=O)(=O)CC2CCCN(C(=O)C3CCC3)C2)c1F` (stereo not shown) [Compound I-291], the half-inhibitory concentration (IC50) against KAT5 and on KAT6A was ≤ 10 µM in each case.
Regarding `Cc1cc(-c2cccc(OCCN(C)C)c2)cc(C(=O)NNS(=O)(=O)c2ccccc2)c1F` [Compound I-386], the IC50 against KAT5 is > 100 µM; at KAT6A, 10 to 50 µM.
For `O=C(NNS(=O)(=O)c1cccc(Cl)c1)c1c(F)ccc(-c2cnc[nH]2)c1F` [Compound I-499] the same measures were > 100 µM and > 100 µM.
In the same order, the values of `O=C(NNS(=O)(=O)c1ccccc1)c1cc(-c2ccccc2)cc(F)c1F` [Compound I-250] are ≤ 10 µM and ≤ 10 µM.
For the molecule `Cc1cc(-c2ccccc2)cc(C(=O)NNS(=O)(=O)C2CCN(C(=O)OC(C)(C)C)CC2)c1F` [Compound I-88], the half-inhibitory concentration (IC50) against KAT5 and against KAT6A was ≤ 10 µM in each case.
Regarding `COCC(=O)N1CCC(CS(=O)(=O)NNC(=O)c2cc(-c3ccccc3)cc(C)c2F)C1` (stereo not shown) [Compound I-356], the IC50 on KAT5 and against KAT6A was ≤ 10 µM in each case.
For the molecule `O=S(=O)(NNc1nc2ccccc2[nH]1)c1ccccc1` [Compound I-12], the IC50 at KAT5 and on KAT6A was > 100 µM throughout.
As for `Cc1cc(-c2cccc(Cl)c2)cc(C(=O)NNS(=O)(=O)CC2CCCCC2)c1F` [Compound I-342], the IC50 against KAT5 and against KAT6A was 50 to 100 µM in each case.
On to `O=C(NNS(=O)(=O)C1CCNCC1)c1cc(Cl)cc(Cl)c1F` [Compound I-406], for which the half-inhibitory concentration (IC50) on KAT5 and on KAT6A was > 100 µM in each case.
`O=C(NNS(=O)(=O)c1ccccc1)c1c(F)cccc1-c1ccccc1` [Compound I-354]: the half-maximal inhibitory concentration (IC50) against KAT5 and on KAT6A was > 100 µM each time.
For the molecule `Cc1nn(Cc2ccccc2)cc1C(=O)NNS(=O)(=O)c1ccccc1` [Compound I-122], the concentration for half-maximal inhibition (IC50) against KAT5 and against KAT6A was > 100 µM in each case.
On to `O=C(NNS(=O)(=O)C1CCCCC1)c1cc(-c2ccccc2)ccc1F` [Compound I-360], for which the concentration for half-maximal inhibition (IC50) at KAT5 and at KAT6A was 10 to 50 µM throughout.
As for `Cc1cc(-c2ccccc2)cc(C(=O)NN(C)S(=O)(=O)c2ccccc2)c1F` [Compound I-242], the 50% inhibitory concentration (IC50) on KAT5 was > 100 µM; at KAT6A, 10 to 50 µM.
For the molecule `CC(=O)N1CCCC(S(=O)(=O)NNC(=O)c2cc(-c3ccccc3)cc(C)c2F)C1` (stereo not shown) [Compound I-102], the half-inhibitory concentration (IC50) on KAT5 and on KAT6A was 10 to 50 µM throughout.
For `COc1cccc(CN2CCC(S(=O)(=O)NNC(=O)c3cc(-c4ccccc4)cc(C)c3F)C2)c1` (stereo not shown) [Compound I-26], the half-inhibitory concentration (IC50) against KAT5 and against KAT6A was ≤ 10 µM each time.
`Cc1c(-c2ccccc2)ccc(F)c1C(=O)NNS(=O)(=O)c1ccc2ccccc2c1` [Compound I-240]: the IC50 against KAT5 and on KAT6A was 10 to 50 µM throughout.
As for `Cc1cc(-c2ccccc2)cc(C(=O)NNS(=O)(=O)c2ccc(C(N)=O)cc2)c1F` [Compound I-239], the concentration for half-maximal inhibition (IC50) on KAT5 and at KAT6A was ≤ 10 µM each time.
As for `Cc1cc(-c2ccccc2)cc(C(=O)NNc2ncccn2)c1F` [Compound I-309], the IC50 at KAT5 and against KAT6A was > 100 µM in each case.
For `Cc1cc(-c2ccccc2)cc(C(=O)NNS(=O)(=O)C2CCC2)c1F` [Compound I-7], the IC50 against KAT5 and against KAT6A was 10 to 50 µM in each case.
`O=C(NNS(=O)(=O)C1CCCCC1)c1cc(-c2cc(Cl)cc(Cl)c2)cc(Cl)c1F` [Compound I-487]: the IC50 on KAT5 and against KAT6A was 10 to 50 µM each time.

These data come from US20220267260A1, “COMPOUNDS CONTAINING A SULFONIC GROUP AS KAT INHIBITORS” (Epizyme, Inc., priority 2016, published 2022).
